According to US9387211B2 (Cedars-Sinai Medical Center, priority 2010, dated 2016):

Key:
[1] = test system: AtT20 cells stably expressing empty vector (V); experiment: Cell proliferation assay (cell counting)
Description: EGFR WT cells were plated at a density of 2×10^4 per well in 12-well plates with growth medium. Cells were counted by hemocytometer at the indicated times.

[2] = test system: non-tumor pituitary cell cultures
[3] = test system: AtT20 cells stably expressing empty vector (V); experiment: Pomc promoter luciferase assay; details: highest gefitinib dose (10 μM); control cells
[4] = test system: AtT20 cells stably expressing empty vector (V); experiment: BrdU incorporation by flow cytometry; details: 10 μM gefitinib, 24 hours
Description: Fixative was prepared by adding 30 mL of 50 mM glycin solution (pH 2.0) to 70 mL ethanol. Cells were fixed for overnight at −20° C. Cells were washed with PBS, and resuspended in incubation solution with anti-BrdU antibody (1:10) for 30 minutes at 37° C. with gentle agitation. […] Samples were washed with PBS and fluorescence was measured by flow cytometry.

With COc1cc2ncnc(Nc3ccc(F)c(Cl)c3)c2cc1OCCCN1CCOCC1 [gefitinib] as the compound, how does the “decrease of cell proliferation” value ([1]; gefitinib 0.1-10 μM, 24 hours, V) read?
The value was “not V cell proliferation”.

What about the cell number ([1]; high dose (10 μM) gefitinib, V cells) of the same compound?
Its cell number is “not altered”.

And the “pomc mRNA expression levels” value ([2]; non-tumor pituitary cell cultures (FIG. 6))?
The value was “unaltered”.

What about the normal pituitary function ([2]; normal pituitary (FIG. 5F)) of the same compound?
The normal pituitary function was “does not affect”.

And the “suppression of pomc promoter activity” value [3]?
The value was roughly 23%.

What about the “reduction of BrdU incorporation” value [4] of the same compound?
Its value is roughly 58%.
